From patent US8859572B2, “Sulfone substituted 2,3-dihydroimidazo [1,2-C] quinazoline derivatives useful for treating hyper-proliferative disorders and diseases with angiogenesis” (Bayer Intellectual Property GmbH, priority 2008, dated 2014) come the findings set out here.

In the assay the target is T1, PI3Kβ (recombinant truncated form (ΔN1-108) of the human p110β subunit of PI3K) (Homo sapiens, UniProt P42338).
T1 construct: His6 (N); made in house; host or cells: Spodoptera frugiperda Sf9 insect cells
In words: Solid-phase lipid kinase assay of PI3Kβ. It counts as biochemical. The note with it: 7.5 ng protein/well, final 10 μM ATP, 2 h at rt. As for the experimental part:
To assess inhibition of PI3Kα by compounds, the Maxisorp™ plates were coated with 50 μL/well of a solution containing 50 μg/ml PtdIns and 50 μg/ml PtdSer dissolved in chloroform:ethanol (3:7). The plates were subsequently air-dried by incubation for at least 2 h in a fume hood. The reaction was set up by mixing 25 μL/well of assay buffer 2×(100 mM MOPSO/NaOH, 0.2 M NaCl, pH 7.0, 8 mM MgCl2, 2 mg/mL BSA (fatty acid-free)), and 7.5 ng/well PI3Kα in the lipid pre-coated plate. Test compounds at different concentrations (0.0, 0.003, 0.01 0.03, 0.1, 0.3, 1.0, 3.0 and 10 μM) were added in 2% DMSO. The reaction was initiated by adding 20 μL/well of ATP mix (final 10 μM ATP; 0.05 μCi/well [γ^33P]ATP). After incubation at rt for 2 h, the reaction was terminated by adding 50 μl/well stop solution (50 mM EDTA, pH 8.0). The plate was then washed twice with Tris-buffered saline (TBS, pH 7.4). MicroScint PS™ (PACKARD) scintillation mix was added at 100 μL/well, and radioactivity was counted using a TopCount™ (PACKARD) scintillation counter.
The inhibition percent at each concentration of compound was calculated, and IC50 values were determined from the inhibition of curve.
A recombinant truncated form (ΔN1-108) of the human p110β subunit of PI3K with an N-terminal His6-Tag was expressed in S. frugiperda 9 insect cells. Recombinant human PI3Kγ (full length human PI3K p110γ fused with a His6-tag at the C-terminus expressed in S. frugiperda 9 insect cells) was obtained from ALEXIS BIOCHEMICALS (#201-055-0010; San Diego, Calif.).
Kinase assays using recombinant truncated p110β or the full length p110γ were performed in a similar manner as described in the determination of IC50 values of compounds in the kinase assay of PI3Kα except that these isoforms were assayed using 7.5 ng and 25.0 ng of protein/well, respectively.

T1 sequence (P42338 109-1070): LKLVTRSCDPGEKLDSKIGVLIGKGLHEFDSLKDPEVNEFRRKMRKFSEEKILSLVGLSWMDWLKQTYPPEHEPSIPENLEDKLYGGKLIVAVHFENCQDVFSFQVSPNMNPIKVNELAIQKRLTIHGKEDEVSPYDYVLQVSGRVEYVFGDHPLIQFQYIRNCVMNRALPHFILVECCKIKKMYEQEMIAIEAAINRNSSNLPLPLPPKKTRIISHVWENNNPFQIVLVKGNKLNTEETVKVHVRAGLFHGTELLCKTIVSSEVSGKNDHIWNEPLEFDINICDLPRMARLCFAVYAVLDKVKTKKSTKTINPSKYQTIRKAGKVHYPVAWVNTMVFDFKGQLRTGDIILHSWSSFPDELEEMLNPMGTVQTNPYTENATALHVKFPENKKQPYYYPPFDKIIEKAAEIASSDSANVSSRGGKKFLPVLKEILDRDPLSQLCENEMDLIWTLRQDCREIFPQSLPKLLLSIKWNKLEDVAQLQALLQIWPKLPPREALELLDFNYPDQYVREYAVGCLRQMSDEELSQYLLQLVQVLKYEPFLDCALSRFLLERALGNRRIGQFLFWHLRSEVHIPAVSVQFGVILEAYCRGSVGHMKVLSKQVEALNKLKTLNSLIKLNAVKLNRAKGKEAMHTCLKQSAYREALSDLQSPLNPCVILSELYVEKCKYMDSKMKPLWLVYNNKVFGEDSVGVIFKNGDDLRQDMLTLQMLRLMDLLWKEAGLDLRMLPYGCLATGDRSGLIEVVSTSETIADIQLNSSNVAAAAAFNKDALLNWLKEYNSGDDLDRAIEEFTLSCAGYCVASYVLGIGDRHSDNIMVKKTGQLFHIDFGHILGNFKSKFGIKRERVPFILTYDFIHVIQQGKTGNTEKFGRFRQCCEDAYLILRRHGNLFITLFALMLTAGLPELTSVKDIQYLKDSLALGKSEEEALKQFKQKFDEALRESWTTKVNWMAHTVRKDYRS

As to `COc1c(OCCCS(=O)(=O)N2CCN(C)CC2)ccc2c1N=C(NC(=O)c1cccnc1)N1CCN=C21` [Example 1, N-(7-methoxy-8-{3-[(4-methylpiperazin-1-yl)sulfonyl]propoxy}-2,3-dihydroimidazo[1,2-c]quinazolin-5-yl)nicotinamide], the IC50 (as a rule, the point on the concentration scale where inhibition reaches its midpoint) is under 100 nM. The same measure for `COc1c(OCc2ccc(S(C)(=O)=O)cc2)ccc2c1N=C(NC(=O)c1cccnc1)N1CCN=C21` [Example 2, N-(7-methoxy-8-{[4-(methylsulfonyl)benzyl]oxy}-2,3-dihydroimidazo[1,2-c]quinazolin-5-yl)nicotinamide]: 100 to 3000 nM. Consider `COc1c(OCCCS(=O)(=O)N2CCOCC2)ccc2c1N=C(NC(=O)c1cccnc1)N1CCN=C21` [Example 3, N-{7-methoxy-8-[3-(morpholin-4-ylsulfonyl)propoxy]-2,3-dihydroimidazo[1,2-c]quinazolin-5-yl}nicotinamide], for which the IC50 was under 100 nM.

In the case of `COc1c(OCCCN2CCS(=O)(=O)CC2)ccc2c1N=C(NC(=O)c1cccnc1)N1CCN=C21` [Example 4, N-{8-[3-(1,1-dioxidothiomorpholin-4-yl)propoxy]-7-methoxy-2,3-dihydroimidazo[1,2-c]quinazolin-5-yl}nicotinamide], the IC50 is under 100 nM.

As for `COc1c(OCCCS(=O)(=O)N(C)C)ccc2c1N=C(NC(=O)c1cccnc1)N1CCN=C21` [Example 5, N-(8-{3-[(dimethylamino)sulfonyl]propoxy}-7-methoxy-2,3-dihydroimidazo[1,2-c]quinazolin-5-yl)nicotinamide], the IC50 is under 100 nM. To `CCN(CC)S(=O)(=O)CCCOc1ccc2c(c1OC)N=C(NC(=O)c1cccnc1)N1CCN=C21` [Example 6, N-(8-{3-[(diethylamino)sulfonyl]propoxy}-7-methoxy-2,3-dihydroimidazo[1,2-c]quinazolin-5-yl)nicotinamide] belongs under 100 nM; to `O=C(NC1=Nc2c(OCCCS(=O)(=O)N3CCOCC3)cccc2C2=NCCN12)c1cccnc1` [Example 7, N-{7-[3-(morpholin-4-ylsulfonyl)propoxy]-2,3-dihydroimidazo[1,2-c]quinazolin-5-yl}nicotinamide], 100 to 3000 nM; to `CN1CCN(S(=O)(=O)CCCOc2cccc3c2N=C(NC(=O)c2cccnc2)N2CCN=C32)CC1` [Example 8, N-(7-{3-[(4-methylpiperazin-1-yl)sulfonyl]propoxy}-2,3-dihydroimidazo[1,2-c]quinazolin-5-yl)nicotinamide], 100 to 3000 nM. The same measure for `O=C(NC1=Nc2c(OCCCN3CCS(=O)(=O)CC3)cccc2C2=NCCN12)c1cccnc1` [Example 9, N-{7-[3-(1,1-dioxidothiomorpholin-4-yl)propoxy]-2,3 dihydroimidazo[1,2-c]quinazolin-5-yl}nicotinamide]: 100 to 3000 nM. To `CS(=O)(=O)c1ccc(COc2cccc3c2N=C(NC(=O)c2cccnc2)N2CCN=C32)cc1` [Example 10, N-(7-{[4-(methylsulfonyl)benzyl]oxy}-2,3-dihydroimidazo[1,2-c]quinazolin-5-yl)nicotinamide] belongs under 100 nM; to `CN(C)S(=O)(=O)CCCOc1cccc2c1N=C(NC(=O)c1cccnc1)N1CCN=C21` [Example 11, N-(7-{3-[(dimethylamino)sulfonyl]propoxy}-2,3-dihydroimidazo[1,2-c]quinazolin-5-yl)nicotinamide], under 100 nM; to `O=C(NC1=Nc2c(ccc(OCCCN3CCOCC3)c2OCCCS(=O)(=O)N2CCOCC2)C2=NCCN12)c1cccnc1` [Example 12], under 100 nM. For the compound `CN1CCN(S(=O)(=O)CCCOc2c(OCCCN3CCOCC3)ccc3c2N=C(NC(=O)c2cccnc2)N2CCN=C32)CC1` [Example 13, N-[7-{3-[(4-methylpiperazin-1-yl)sulfonyl]propoxy}-8-(3-morpholin-4-ylpropoxy)-2,3-dihydroimidazo[1,2-c]quinazolin-5-yl]nicotinamide], the IC50 is under 100 nM. The same measure for `CCN(CC)S(=O)(=O)CCCOc1c(OCCCN2CCOCC2)ccc2c1N=C(NC(=O)c1cccnc1)N1CCN=C21` [Example 14, N-[7-{3-[(Diethylamino)sulfonyl]propoxy}-8-(3-morpholin-4-ylpropoxy)-2,3-dihydroimidazo[1,2-c]quinazolin-5-yl]nicotinamide]: under 100 nM; for `CN(C)S(=O)(=O)CCCOc1c(OCCCN2CCOCC2)ccc2c1N=C(NC(=O)c1cccnc1)N1CCN=C21` [Example 15, N-[7-{3-[(dimethylamino)sulfonyl]propoxy}-8-(3-morpholin-4-ylpropoxy)-2,3-dihydroimidazo[1,2-c]quinazolin-5-yl]nicotinamide]: under 100 nM. The same measure for `COc1c(OCc2ccc(S(C)(=O)=O)cc2)ccc2c1N=C(NC(=O)c1cnc(N)nc1)N1CCN=C21` [Example 16, 2-amino-N-(7-methoxy-8-{[4-(methylsulfonyl)benzyl]oxy}-2,3-dihydroimidazo[1,2-c]quinazolin-5-yl)pyrimidine-5-carboxamide]: under 100 nM; for `COc1c(OCCCS(=O)(=O)N(C)C)ccc2c1N=C(NC(=O)c1cnc(N)nc1)N1CCN=C21` [Example 17, 2-amino-N-(8-{3-[(dimethylamino)sulfonyl]propoxy}-7-methoxy-2,3-dihydroimidazo[1,2-c]quinazolin-5-yl)pyrimidine-5-carboxamide]: under 100 nM.

As to `COc1c(OCCCS(=O)(=O)N(C)C)ccc2c1N=C(NC(=O)c1ccc(N)nc1)N1CCN=C21` [Example 18, 6-amino-N-(8-{3-[(dimethylamino)sulfonyl]propoxy}-7-methoxy-2,3-dihydroimidazo[1,2-c]quinazolin-5-yl)nicotinamide], the IC50 was under 100 nM. To `COc1c(OCCCN2CCS(=O)(=O)CC2)ccc2c1N=C(NC(=O)c1ccc(N)nc1)N1CCN=C21` [Example 19, 6-amino-N-{8-[3-(1,1-dioxidothiomorpholin-4-yl)propoxy]-7-methoxy-2,3-dihydroimidazo[1,2-c]quinazolin-5-yl}nicotinamide] belongs under 100 nM; to `COc1c(OCc2ccc(S(C)(=O)=O)cc2)ccc2c1N=C(NC(=O)c1ccc(N)nc1)N1CCN=C21` [Example 20, 6-amino-N-(7-methoxy-8-{[4-(methylsulfonyl)benzyl]oxy}-2,3-dihydroimidazo[1,2-c]quinazolin-5-yl)nicotinamide], under 100 nM. To `COc1c(OCCCN2CCS(=O)(=O)CC2)ccc2c1N=C(NC(=O)c1cnc(N)nc1)N1CCN=C21` [Example 21, 2-amino-N-{8-[3-(1,1-dioxidothiomorpholin-4-yl)propoxy]-7-methoxy-2,3-dihydroimidazo[1,2-c]quinazolin-5-yl}pyrimidine-5-carboxamide] belongs under 100 nM; to `COc1c(OCCCS(=O)(=O)N2CCOCC2)ccc2c1N=C(NC(=O)c1ccc(N)nc1)N1CCN=C21` [Example 22, 6-amino-N-{7-methoxy-8-[3-(morpholin-4-ylsulfonyl)propoxy]-2,3-dihydroimidazo[1,2-c]quinazolin-5-yl}nicotinamide], under 100 nM.

As for `COc1c(OCCCS(=O)(=O)N2CCOCC2)ccc2c1N=C(NC(=O)c1cnc(N)nc1)N1CCN=C21` [Example 23, 2-amino-N-{7-methoxy-8-[3-(morpholin-4-ylsulfonyl)propoxy]-2,3-dihydroimidazo[1,2-c]quinazolin-5-yl}pyrimidine-5-carboxamide], the IC50 is under 100 nM. The same measure for `O=C(NC1=Nc2cc(OCCCS(=O)(=O)N3CCOCC3)ccc2C2=NCCN12)c1cccnc1` [Example 24, N-{8-[3-(morpholin-4-ylsulfonyl)propoxy]-2,3-dihydroimidazo[1,2-c]quinazolin-5-yl}nicotinamide]: 100 to 3000 nM; for `CN1CCN(S(=O)(=O)CCCOc2ccc3c(c2)N=C(NC(=O)c2cccnc2)N2CCN=C32)CC1` [Example 25, N-(8-{3-[(4-methylpiperazin-1-yl)sulfonyl]propoxy}-2,3-dihydroimidazo[1,2-c]quinazolin-5-yl)nicotinamide]: 100 to 3000 nM.

Turning to `CS(=O)(=O)c1ccc(COc2ccc3c(c2)N=C(NC(=O)c2cccnc2)N2CCN=C32)cc1` [Example 26, N-(8-{[4-(methylsulfonyl)benzyl]oxy}-2,3-dihydroimidazo[1,2-c]quinazolin-5-yl)nicotinamide], the IC50 was 100 to 3000 nM. Regarding `Cc1nc(C)c(C(=O)NC2=Nc3cc(OCc4ccc(S(C)(=O)=O)cc4)ccc3C3=NCCN23)s1` [Example 27, 2,4-dimethyl-N-(8-{[4-(methylsulfonyl)benzyl]oxy}-2,3-dihydroimidazo[1,2-c]quinazolin-5-yl)-1,3-thiazole-5-carboxamide], the IC50 lay in the range of 100 to 3000 nM.
